16 compounds from patent US20240383911A1, “AZAINDAZOLE MACROCYCLE COMPOUNDS AND USES THEREOF” (BROADENBIO CO., LTD, priority 2021, published 2024) can be followed below.

SMILES strings stand for the structures.

In one assay the target is HPK1 (Homo sapiens, UniProt Q92918). The experiment in a line: HPK1 kinase activity inhibition test (ADP-Glo, luminescence). The class given is biochemical. The note with it: 2 μM ATP, 5 nM HPK1, read-out: IC50, inhibitory effects on HPK1 kinase activity. As for the experimental part:
The kinase activity of HPK1 is manifested as activity of autophosphorylation and phosphorylation of downstream substrates. In the process of autophosphorylation, additional substrates are not required, and ATP is consumed to generate ADP. The amount of the product is measured by ADP-Glo reagent and luminescence method to reflect kinase activity.
(§1) Tested compounds: compounds prepared in the Examples of this invention.
Preparation of compound stock solution: dissolve the test compound in 100% DMSO to make a 10 mM stock solution;
Preparation of 4×Kinase Reaction Buffer:
Preparation of 2×HPK1 Kinase Solution:
Preparation of 4×ATP Mixture:
Dilute the stock solution of the test compound by 5 times with 100% DMSO, make a 4-fold equal dilution in a 96-well dilution plate, add 1 μL of the compound to 49 μL of kinase reaction buffer, and shake on a microplate shaker for 20 minutes. Transfer 2 μL of 2×HPK1 kinase solution to 384 reaction plate, add 1 μL of the test compound to the 384 reaction plate (Greiner, Cat #784075), centrifuge for 1 minute (1000 rpm/min), incubate at 25° C. for 10 minutes. Transfer 1 μL of the 4×ATP mixture to a 384 reaction plate, centrifuge for 1 minute (1000 rpm/min), and incubate at 25° C. for 60 minutes. In the reaction system, the final concentration of DMSO is 0.5%. Transfer 4 μL of ADP-Glo to a 384 reaction plate, centrifuge for 1 minute (1000 rpm/min), and incubate at 25° C. for 40 minutes. Transfer 8 μL detection solution to a 384 reaction plate, centrifuge for 1 minute (1000 rpm/min), and incubate at 25° C. for 40 minutes. The […] is read using a Biotek multi-function plate reader, and the IC50 (half inhibitory concentration) of the compound is obtained using a four-coefficient nonlinear fitting formula.

The test system of the next assay is Human Jurkat-E6-1 cells. The assay is described as follows: Detection of IL-2 production by Jurkat cells using ELISA. The format is cell-based. The note with it: anti-CD3/anti-CD28 stimulation 24 hours, read-out: Percentage of the amount of IL-2 secreted by compound treated vs DMSO-treated cells; for activity at 3 µM: tested compound 3.0 μM; for activity at 0.33 µM: tested compound 0.33 μM; for activity at 1 µM: tested compound 1.0 μM. As for the experimental part:
as §1
Human Jurkat-E6-1 cells were incubated with various concentrations of tested compounds for 30 minutes in a humidified incubator at 37° C. and 5% CO2. Cells were transferred to cell culture plates pre-coated with anti-human CD3 antibody, then soluble anti-human CD28 antibody was added, and cells were stimulated for 24 hours at 37° C. and 5% CO2 in a humidified incubator. The cell culture medium was collected after centrifugation, and was then transferred to a 96-well transparent microtiter plate (Thermo) pre-coated with anti-human IL-2 antibody, incubated at room temperature for 2 hours with gently shaking, washed with washing buffer for 4 times, and then followed the ELISA MAX Deluxe Set Human IL-2 (BioLegend) kit procedures, used a microplate reader (Molecular Device, i3X) to read the GD value at 450 nm. The best standard curve was selected by the microplate reader application software, and the corresponding concentration was calculated according to the GD value of the standard. Results are expressed as a percentage (%) of the amount of IL-2 secreted by compound-treated vs DMSO-treated cells.

Chain of HPK1 (Q92918 whole entry): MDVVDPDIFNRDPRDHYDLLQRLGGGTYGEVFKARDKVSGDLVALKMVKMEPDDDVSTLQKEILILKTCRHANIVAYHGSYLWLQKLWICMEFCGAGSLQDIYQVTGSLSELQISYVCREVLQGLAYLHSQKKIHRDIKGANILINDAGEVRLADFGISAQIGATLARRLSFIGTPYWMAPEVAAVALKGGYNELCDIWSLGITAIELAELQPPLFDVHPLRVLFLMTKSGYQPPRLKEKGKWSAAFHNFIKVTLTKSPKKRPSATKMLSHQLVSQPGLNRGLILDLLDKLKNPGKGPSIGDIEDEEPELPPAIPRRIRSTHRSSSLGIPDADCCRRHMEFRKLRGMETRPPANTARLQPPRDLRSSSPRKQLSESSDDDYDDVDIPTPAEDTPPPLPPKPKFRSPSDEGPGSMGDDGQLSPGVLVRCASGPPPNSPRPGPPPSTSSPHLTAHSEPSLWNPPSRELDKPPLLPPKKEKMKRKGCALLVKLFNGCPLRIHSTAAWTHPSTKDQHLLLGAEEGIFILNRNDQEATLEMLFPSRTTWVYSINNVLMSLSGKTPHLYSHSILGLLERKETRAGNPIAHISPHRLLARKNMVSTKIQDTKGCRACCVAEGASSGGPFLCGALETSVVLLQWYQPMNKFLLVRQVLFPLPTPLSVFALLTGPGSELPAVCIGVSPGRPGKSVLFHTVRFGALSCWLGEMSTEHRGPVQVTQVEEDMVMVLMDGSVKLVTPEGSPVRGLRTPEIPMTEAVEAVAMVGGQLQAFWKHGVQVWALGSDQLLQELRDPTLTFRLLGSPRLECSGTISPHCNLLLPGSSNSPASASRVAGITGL

As to `Fc1cccc2c1-c1cc3c(n[nH]c3cn1)-c1cnc(N3CCOCC3)c(c1)OCCCO2` [Compound 4, 16-fluoro-5-(morpholin-4-yl)-7,11-dioxa-4,19,22,23-tetraazapentacyclo[16.5.2.1^2,6.0^12,17.0^21,24]hexacosa-1(23),2(26),3,5,12,14,16,18,20,24-decaene], the half-maximal inhibitory concentration (IC50) at HPK1 was in the range of 5 to 50 nM. In the assay with Human Jurkat-E6-1 cells, the activity at 3 µM came out at 801%.

Turning to `CN1CCN(c2ccc3cc2OCCCCOc2cccc(F)c2-c2cc4c-3n[nH]c4cn2)CC1` [Compound 7, 17-fluoro-5-(4-methylpiperazin-1-yl)-7,12-dioxa-20,23,24-triazapentacyclo[17.5.2.1^2,6.0^13,18.0^22,25]heptacosa-1(24),2(27),3,5,13,15,17,19,21,25-decaene], the IC50 on HPK1 lay within 5 to 50 nM. Moreover, the activity at 3 µM with Human Jurkat-E6-1 cells was 404%. Consider `CN1CCN(c2ccc3cc2OCCCOCc2cccc(F)c2-c2cc4c-3n[nH]c4cn2)CC1(C)C` [Compound 17, 17-fluoro-5-(3,3,4-trimethylpiperazin-1-yl)-7,11-dioxa-20,23,24-triazapentacyclo[17.5.2.1^2,6.0^13,18.0^22,25]heptacosa-1(24),2,4,6(27),13(18),14,16,19,21,25-decaene], for which the IC50 on HPK1 was at most 5 nM. Also, in the assay with Human Jurkat-E6-1 cells, the activity at 0.33 µM is 439%. Taken in the same sequence, the figures for `CN1C2CCC1CN(c1ccc3cc1OCCCOCc1cccc(F)c1-c1cc4c-3n[nH]c4cn1)C2` [Compound 18, 17-fluoro-5-{8-methyl-3,8-diazabicyclo[3.2.1]octan-3-yl}-7,11-dioxa-20,23,24-triazapentacyclo[17.5.2.1^2,6.0^13,18.0^22,25]heptacosa-1(24),2,4,6(27),13(18),14,16,19,21,25-decaene] were at most 5 nM and 486%. Turning to `CN1CCN(c2ccc3cc2OCCCCOCc2cccc(F)c2-c2cc4c-3n[nH]c4cn2)CC1` [Compound 100, 18-fluoro-5-(4-methylpiperazin-1-yl)-7,12-dioxa-21,24,25-triazapentacyclo[18.5.2.1^2,6.0^14,19.0^23,26]octacosa-1(25),2(28),3,5,14(19),15,17,20,22,26-decaene], the half-maximal inhibitory concentration (IC50) at HPK1 fell in the range of 5 to 50 nM. The activity at 1 µM in the assay on Human Jurkat-E6-1 cells was found to be 235%. Turning to `CN1CCN(c2ccc3cc2OCCCCCc2cccc(F)c2-c2cc4c-3n[nH]c4cn2)CC1` [Compound 101, 17-fluoro-5-(4-methylpiperazin-1-yl)-7-oxa-20,23,24-triazapentacyclo[17.5.2.1^2,6.0^13,18.0^22,25]heptacosa-1(24),2(27),3,5,13(18),14,16,19,21,25-decaene], at HPK1, the IC50 was at most 5 nM. In addition, in the assay on Human Jurkat-E6-1 cells, the activity at 0.33 µM was determined as 257%. The like results for `Fc1cccc2c1-c1cc3c(n[nH]c3cn1)-c1ccc(N3CCC(N4CCOCC4)CC3)c(c1)OCCCO2` [Compound 104, 16-fluoro-5-[4-(morpholin-4-yl)piperidin-1-yl]-7,11-dioxa-19,22,23-triazapentacyclo[16.5.2.1^2,6.0^12,17.0^21,24]hexacosa-1(23),2,4,6(26),12(17),13,15,18,20,24-decaene] were, in that order, at most 5 nM and 273%. Regarding `Fc1cccc2c1-c1cc3c(n[nH]c3cn1)-c1ccc(N3CCC(N4CCOCC4)CC3)c(c1)OCCCOC2` [Compound 105, 17-fluoro-5-[4-(morpholin-4-yl)piperidin-1-yl]-7,11-dioxa-20,23,24-triazapentacyclo[17.5.2.1^2,6.0^13,18.0^22,25]heptacosa-1(24),2,4,6(27),13(18),14,16,19,21,25-decaene], the IC50 on HPK1 was at most 5 nM. The activity at 0.33 µM in the assay with Human Jurkat-E6-1 cells was 313%. Consider `OC1CCN(c2ccc3cc2OCCCOc2cccc(F)c2-c2cc4c-3n[nH]c4cn2)CC1` [Compound 106, 16-fluoro-5-(4-hydroxypiperidin-1-yl)-7,11-dioxa-19,22,23-triazapentacyclo[16.5.2.1^2,6.0^12,17.0^21,24]hexacosa-1(23),2,4,6(26),12(17),13,15,18,20,24-decaene], for which, at HPK1, the IC50 was in the range of 5 to 50 nM. The activity at 1 µM with Human Jurkat-E6-1 cells was found to be 504%. Consider `OC1CCN(c2ccc3cc2OCCCOCc2cccc(F)c2-c2cc4c-3n[nH]c4cn2)CC1` [Compound 107, 17-fluoro-5-(4-hydroxypiperidin-1-yl)-7,11-dioxa-20,23,24-triazapentacyclo[17.5.2.1^2,6.0^13,18.0^22,25]heptacosa-1(24),2,4,6(27),13(18),14,16,19,21,25-decaene], for which, on HPK1, the IC50 was at most 5 nM. Besides, in the assay on Human Jurkat-E6-1 cells, the activity at 1 µM stood at 345%. With `CN1CCN(C2CCN(c3ccc4cc3OCCCOc3cccc(F)c3-c3cc5c-4n[nH]c5cn3)CC2)CC1` [Compound 108, 16-fluoro-5-[4-(4-methylpiperazin-1-yl)piperidin-1-yl]-7,11-dioxa-19,22,23-triazapentacyclo[16.5.2.1^2,6.0^12,17.0^21,24]hexacosa-1(23),2,4,6(26),12(17),13,15,18,20,24-decaene], the IC50 at HPK1 was at most 5 nM. Besides, in the assay with Human Jurkat-E6-1 cells, the activity at 0.33 µM turned out to be 213%. For `CN1CCN(C2CCN(c3ccc4cc3OCCCOCc3cccc(F)c3-c3cc5c-4n[nH]c5cn3)CC2)CC1` [Compound 109, 17-fluoro-5-[4-(4-methylpiperazin-1-yl)piperidin-1-yl]-7,11-dioxa-20,23,24-triazapentacyclo[17.5.2.1^2,6.0^13,18.0^22,25]heptacosa-1(24),2,4,6(27),13(18),14,16,19,21,25-decaene], at HPK1, the IC50 is at most 5 nM. For the same compound, the activity at 1 µM with Human Jurkat-E6-1 cells came to 264%. In the case of `CN(C)C1(C)CCN(c2ccc3cc2OCCCOc2cccc(F)c2-c2cc4c-3n[nH]c4cn2)CC1` [Compound 110, 1-{16-fluoro-7,11-dioxa-19,22,23-triazapentacyclo[16.5.2.1^2,6.0^12,17.0^21,24]hexacosa-1(23),2,4,6(26),12(17),13,15,18,20,24-decaen-5-yl}-N,N,4-trimethylpiperidin-4-amine], the IC50 on HPK1 was at most 5 nM. Moreover, the activity at 0.33 µM with Human Jurkat-E6-1 cells is 222%. As for `CN(C)C1(C)CCN(c2ccc3cc2OCCCOCc2cccc(F)c2-c2cc4c-3n[nH]c4cn2)CC1` [Compound 111, 1-{17-fluoro-7,11-dioxa-20,23,24-triazapentacyclo[17.5.2.1^2,6.0^13,18.0^22,25]heptacosa-1(24),2,4,6(27),13(18),14,16,19,21,25-decaen-5-yl}-N,N,4-trimethylpiperidin-4-amine], the IC50 on HPK1 is at most 5 nM. For the same compound, the activity at 0.33 µM in the assay on Human Jurkat-E6-1 cells is 388%. On to `OC1CCN(C2CCN(c3ccc4cc3OCCCOCc3cccc(F)c3-c3cc5c-4n[nH]c5cn3)CC2)CC1` [Compound 112, 1′-{17-fluoro-7,11-dioxa-20,23,24-triazapentacyclo[17.5.2.1^2,6.0^13,18.0^22,25]heptacosa-1(24),2,4,6(27),13(18),14,16,19,21,25-decaen-5-yl}-[1,4'-bipiperidin]-4-ol], for which the IC50 on HPK1 was at most 5 nM. The activity at 1 µM in the assay on Human Jurkat-E6-1 cells came to 245%. In the case of `CN1CCN(c2ccc3cc2OCCCOc2cccc(F)c2-c2cc4c-3n[nH]c4cn2)CC1(C)C` [Compound 143, 16-fluoro-5-(3,3,4-trimethylpiperazin-1-yl)-7,11-dioxa-19,22,23-triazapentacyclo[16.5.2.1^2,6.0^12,17.0^21,24]hexacosa-1(23),2,4,6(26),12(17),13,15,18,20,24-decaene], the IC50 on HPK1 is at most 5 nM.
